Source: US12508280B2, “Formulations for improving gut health” (DSM IP ASSETS B.V., priority 2018, dated 2025)
Where a name gives a salt, the structure may show the parent alone.

Experiments:
[1] = test system: colonic microbiota (fecal inoculum of two healthy adults); test: 16S-targeted Illumina sequencing with flow cytometry, taxa abundance (second set); format: cell-based, human; conditions: 24 h fermentation
Method: (§1) In a second set of in vitro experiments, at the start of the short-term colonic incubations, the test ingredients were added to nutritional medium containing basal nutrients present in the colon (e.g. host-derived glycans such as mucin). Three doses were tested per product. The nutritional medium used for this particular project was again supplemented with NaCl, MgSO4, CaCl2, hemin and bile salts, and with carbon sources glucose, starch and cellobiose. A blank, containing the same nutritional medium as that used for the product incubations, but without product addition, was included for each donor. In doing so, an assessment can be made of the background activity of the bacterial community, which results from fermentation of compounds in the nutritional medium. As a source of the colonic microbiota a fecal inoculum of two healthy adults was added. Incubations were performed for 48 h at 37′C, under shaking (90 rpm) and anaerobic conditions and protected from light. […] For the second set of in vitro experiments, two techniques were combined according to Vandeputte et al.

[2] = test system: colonic microbiota (fecal inoculum of two healthy adults); test: Microbiome diversity, alpha and beta (second set); format: cell-based, human
Method: as §1

Structure (SMILES)	Akkermansiaceae relative abundance ([1]; 0.2× dose, donor D)	Faecalibacterium prausnitzii relative abundance ([1]; 0.2× dose, donor D)	Erysipelotrichaceae relative abundance ([1]; 1× dose, donor C)	Bifidobacteriaceae relative abundance ([1]; 1× dose, donor D)	Faecalibacterium prausnitzii relative abundance ([1]; 1× dose, donor D)	Bifidobacteriaceae relative abundance ([1]; 5× dose, donor D)	Faecalibacterium prausnitzii relative abundance ([1]; 5× dose, donor D)	alpha-diversity (Shannon diversity index) ([2]; 5× dose, donor D)	beta-diversity (Bray-Curtis distance to control) ([2]; 5× dose, donor D)	Erysipelotrichaceae relative abundance ([1]; 5× dose, donor C)	beta-diversity (Bray-Curtis distance to control) ([2]; 0.2× dose, donor D)	alpha-diversity (Shannon diversity index) ([2]; 1× dose, donor C)	further results
O=C(O)CCCC[C@@H]1SC[C@@H]2NC(=O)N[C@@H]21 [biotin, D-Biotin]	increase Akkermansiaceae relative abundance	increase Faecalibacterium prausnitzii relative abundance	increase Erysipelotrichaceae relative abundance	increase Bifidobacteriaceae relative abundance	increase Faecalibacterium prausnitzii relative abundance	increase Bifidobacteriaceae relative abundance	increase Faecalibacterium prausnitzii relative abundance	increases alpha-diversity	increases beta-diversity	–	–	–	Erysipelotrichaceae relative abundance ([1]; 0.2× dose, donor C): increase Erysipelotrichaceae relative abundance; Bifidobacteriaceae relative abundance ([1]; 0.2× dose, donor D): increase Bifidobacteriaceae relative abundance; Barnesiellaceae relative abundance ([1]; 1× dose, donor D): increase Barnesiellaceae relative abundance; alpha-diversity (Shannon diversity index) ([2]; 0.2× dose, both donors): increases alpha-diversity; beta-diversity (Bray-Curtis distance to control) ([2]; 1× dose, both donors): increases beta-diversity
NC(=O)c1cccnc1 [niacinamide, Niacinamide]	–	–	increase Erysipelotrichaceae relative abundance	–	–	–	–	–	increases beta-diversity	increase Erysipelotrichaceae relative abundance	increases beta-diversity	increases alpha-diversity	Akkermansiaceae relative abundance ([1]; 0.2× dose, donor C): increase Akkermansiaceae relative abundance
Cc1ncc(CO)c(CO)c1O.Cl [pyridoxine, Pyridoxine Hydrochloride]	increase Akkermansiaceae relative abundance	increase Faecalibacterium prausnitzii relative abundance	increase Erysipelotrichaceae relative abundance	increase Bifidobacteriaceae relative abundance	increase Faecalibacterium prausnitzii relative abundance	increase Bifidobacteriaceae relative abundance	increase Faecalibacterium prausnitzii relative abundance	increases alpha-diversity	increases beta-diversity	–	increases beta-diversity	–	Akkermansiaceae relative abundance ([1]; 1× dose, donor D): increase Akkermansiaceae relative abundance; Prevotellaceae relative abundance ([1]; 5× dose, donor C): increase Prevotellaceae relative abundance; Akkermansiaceae relative abundance ([1]; 5× dose, donor D): increase Akkermansiaceae relative abundance; Veillonellaceae relative abundance ([1]; 5× dose, donor D): increase Veillonellaceae relative abundance; beta-diversity (Bray-Curtis distance to control) ([2]; 1× dose, donor D): increases beta-diversity
Cc1ncc(C[n+]2csc(CCO)c2C)c(N)n1 [thiamine, Thiamine Hydrochloride]	–	–	–	–	–	–	–	–	increases beta-diversity	increase Erysipelotrichaceae relative abundance	–	increases alpha-diversity	Akkermansiaceae relative abundance ([1]; 1× dose, donor C): increase Akkermansiaceae relative abundance; alpha-diversity (Shannon diversity index) ([2]; 0.2× dose, donor C): increases alpha-diversity; beta-diversity (Bray-Curtis distance to control) ([2]; 1× dose, donor C): increases beta-diversity
